# Data from US20260297085A1, “1 H-PYRROLO[2,3-B]PYRIDIN-4-YL]-2-OXOPYRROLIDINE-3-CARBONITRILE DERIVATIVES AS TYROSINE KINASE 2 (TYK2) INHIBITORS FOR THE TREATMENT OF INFLAMMATORY DISEASES” (BIOGEN MA INC., priority 2023, published 2026).
# Structures can show the parent of a compound that is named as a salt.
# Columns and labels:
# Conditions in all cases: JH1 kinase domain, ADP-Glo
# [1] = biological target: T1, human TYK2 kinase domain (JH1) (Homo sapiens, UniProt P29597); assay: JH1 biochemical assay for TYK2 (ADP-Glo kinase assay, recombinant JH1 catalytic domain, JAK3-974 peptide, 10 μM ATP)
# T1 construct: recombinantly generated catalytic kinase (also known as JH1) domain of human JAK1, JAK2, JAK3 and TYK2
# T1 sequence (P29597 897-1176 limits assumed): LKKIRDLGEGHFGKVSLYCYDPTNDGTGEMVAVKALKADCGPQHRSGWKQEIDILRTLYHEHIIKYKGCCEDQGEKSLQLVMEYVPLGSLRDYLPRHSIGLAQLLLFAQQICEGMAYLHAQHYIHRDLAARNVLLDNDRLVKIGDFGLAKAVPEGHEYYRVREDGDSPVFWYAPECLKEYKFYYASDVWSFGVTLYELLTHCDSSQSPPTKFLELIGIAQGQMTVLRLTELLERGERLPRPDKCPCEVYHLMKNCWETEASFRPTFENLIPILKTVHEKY
# Outline: (§1)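 Reactions contain 50 μM peptide and run 100 minutes, with enzyme at 4, 0.2, 0.3 and 2 nM for JAK1, JAK2, JAK3 and TYK2. Generated ADP is read by luminescence; IC50 derives from normalized dose-response curves.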
# [2] = biological target: T2, human JAK1 kinase domain (JH1) (Homo sapiens, UniProt P23458); assay: JH1 biochemical assay for JAK1 (ADP-Glo kinase assay, recombinant JH1 catalytic domain, JAK3-342 peptide, 35 μM ATP)
# T2 construct: recombinantly generated catalytic kinase (also known as JH1) domain of human JAK1, JAK2, JAK3 and TYK2
# T2 sequence (P23458 875-1153 limits assumed): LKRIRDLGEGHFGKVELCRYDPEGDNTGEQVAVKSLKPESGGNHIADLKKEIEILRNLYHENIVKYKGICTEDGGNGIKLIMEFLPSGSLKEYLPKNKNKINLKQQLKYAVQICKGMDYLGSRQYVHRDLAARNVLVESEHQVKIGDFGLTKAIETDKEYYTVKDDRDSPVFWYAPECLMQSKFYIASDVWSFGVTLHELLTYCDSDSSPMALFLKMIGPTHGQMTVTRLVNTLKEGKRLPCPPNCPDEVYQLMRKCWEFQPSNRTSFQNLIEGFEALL
# Outline: as §1
# [3] = biological target: T3, human JAK2 kinase domain (JH1) (Homo sapiens, UniProt O60674); assay: JH1 biochemical assay for JAK2 (ADP-Glo kinase assay, recombinant JH1 catalytic domain, JAK3-974 peptide, 15 μM ATP)
# T3 construct: recombinantly generated catalytic kinase (also known as JH1) domain of human JAK1, JAK2, JAK3 and TYK2
# T3 sequence (O60674 849-1124 limits assumed): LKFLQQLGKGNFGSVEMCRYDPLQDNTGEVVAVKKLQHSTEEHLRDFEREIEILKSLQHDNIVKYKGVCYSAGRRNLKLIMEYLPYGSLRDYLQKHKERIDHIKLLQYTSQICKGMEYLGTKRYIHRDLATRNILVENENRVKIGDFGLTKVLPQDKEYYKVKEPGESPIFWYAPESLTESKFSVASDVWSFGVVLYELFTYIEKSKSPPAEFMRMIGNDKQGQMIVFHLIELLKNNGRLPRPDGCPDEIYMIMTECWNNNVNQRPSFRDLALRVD
# Outline: as §1
# [4] = biological target: T4, human JAK3 kinase domain (JH1) (Homo sapiens, UniProt P52333); assay: JH1 biochemical assay for JAK3 (ADP-Glo kinase assay, recombinant JH1 catalytic domain, JAK3-974 peptide, 4 μM ATP)
# T4 construct: recombinantly generated catalytic kinase (also known as JH1) domain of human JAK1, JAK2, JAK3 and TYK2
# T4 sequence (P52333 822-1111 limits assumed): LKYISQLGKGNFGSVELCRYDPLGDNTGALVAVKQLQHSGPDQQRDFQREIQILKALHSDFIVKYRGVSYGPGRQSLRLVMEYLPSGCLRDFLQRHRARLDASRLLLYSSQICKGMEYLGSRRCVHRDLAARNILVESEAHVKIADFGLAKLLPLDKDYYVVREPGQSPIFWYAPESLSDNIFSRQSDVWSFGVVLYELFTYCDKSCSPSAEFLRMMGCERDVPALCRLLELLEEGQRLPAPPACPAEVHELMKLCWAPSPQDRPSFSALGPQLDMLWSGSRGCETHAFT
# Outline: as §1
IC50 [1],IC50 [2],IC50 [3],IC50 [4],Compound
50 to 100 nM,1000 to 5000 nM,> 10 µM,5000 to 10000 nM,"Cc1ccc(O)c(-c2cc3c(N4C[C@@H](C)[C@@](C#N)(C5CC5)C4=O)ccnn3c2)n1 [Example 140, (3R,4S)-3-cyclopropyl-1-(6-(3-hydroxy-6-methylpyridin-2-yl)pyrrolo[1,2-b]pyridazin-4-yl)-4-methyl-2-oxopyrrolidine-3-carbonitrile trifluoroacetate]"
20 to 50 nM,1000 to 5000 nM,1 to 5 µM,1000 to 5000 nM,"C[C@@H]1CN(c2ccnn3cc(-c4cccc5nccn45)cc23)C(=O)[C@]1(C#N)C1CC1 [Example 141, (3R,4S)-3-cyclopropyl-1-(6-(imidazo[1,2-a]pyridin-5-yl)pyrrolo[1,2-b]pyridazin-4-yl)-4-methyl-2-oxopyrrolidine-3-carbonitrile trifluoroacetate]"
20 to 50 nM,1000 to 5000 nM,1 to 5 µM,1000 to 5000 nM,"Cc1cc(-c2cc3c(N4C[C@@H](C)[C@@](C#N)(C5CC5)C4=O)ccnn3c2)ncc1F [Example 142, (3R,4S)-3-cyclopropyl-1-(6-(5-fluoro-4-methylpyridin-2-yl)pyrrolo[1,2-b]pyridazin-4-yl)-4-methyl-2-oxopyrrolidine-3-carbonitrile trifluoroacetate]"
20 to 50 nM,100 to 1000 nM,1 to 5 µM,100 to 1000 nM,"COc1cccc(-c2cc3c(N4C[C@@H](C)[C@@](C#N)(C5CC5)C4=O)ccnn3c2)n1 [Example 143, (3R,4S)-3-cyclopropyl-1-(6-(6-methoxypyridin-2-yl)pyrrolo[1,2-b]pyridazin-4-yl)-4-methyl-2-oxopyrrolidine-3-carbonitrile trifluoroacetate]"
20 to 50 nM,1000 to 5000 nM,1 to 5 µM,1000 to 5000 nM,"Cc1cc(-c2cc3c(N4C[C@@H](C)[C@@](C#N)(C5CC5)C4=O)ccnn3c2)ncc1C#N [Example 144, 6-(4-((3R,4S)-3-cyano-3-cyclopropyl-4-methyl-2-oxopyrrolidin-1-yl)pyrrolo[1,2-b]pyridazin-6-yl)-4-methylnicotinonitrile trifluoroacetate]"
> 100 nM,1000 to 5000 nM,5 to 10 µM,5000 to 10000 nM,"COc1cccnc1-c1cc2c(N3C[C@@H](C)[C@@](C#N)(C4CC4)C3=O)ccnn2c1 [Example 146, (3R,4S)-3-cyclopropyl-1-(6-(3-methoxypyridin-2-yl)pyrrolo[1,2-b]pyridazin-4-yl)-4-methyl-2-oxopyrrolidine-3-carbonitrile trifluoroacetate]"
5 to 20 nM,100 to 1000 nM,0.1 to 1 µM,100 to 1000 nM,"Cc1nc(-c2cc3c(N4C[C@@H](C)[C@@](C#N)(C5CC5)C4=O)ccnn3c2)ccc1F [Example 147, (3R,4S)-3-cyclopropyl-1-(6-(5-fluoro-6-methylpyridin-2-yl)pyrrolo[1,2-b]pyridazin-4-yl)-4-methyl-2-oxopyrrolidine-3-carbonitrile trifluoroacetate]"
20 to 50 nM,100 to 1000 nM,0.1 to 1 µM,100 to 1000 nM,"C[C@@H]1CN(c2ccnn3cc(-c4cc(CO)ccn4)cc23)C(=O)[C@]1(C#N)C1CC1 [Example 148, (3R,4S)-3-cyclopropyl-1-(6-(4-(hydroxymethyl)pyridin-2-yl)pyrrolo[1,2-b]pyridazin-4-yl)-4-methyl-2-oxopyrrolidine-3-carbonitrile trifluoroacetate]"
20 to 50 nM,1000 to 5000 nM,5 to 10 µM,1000 to 5000 nM,"C[C@@H]1CN(c2ccnn3cc(-c4ncccc4O)cc23)C(=O)[C@]1(C#N)C1CC1 [Example 149, (3R,4S)-3-cyclopropyl-1-(6-(3-hydroxypyridin-2-yl)pyrrolo[1,2-b]pyridazin-4-yl)-4-methyl-2-oxopyrrolidine-3-carbonitrile trifluoroacetate]"
5 to 20 nM,100 to 1000 nM,0.1 to 1 µM,100 to 1000 nM,"C[C@@H]1CN(c2ccnn3cc(-c4ccc(CO)cn4)cc23)C(=O)[C@]1(C#N)C1CC1 [Example 150, (3R,4S)-3-cyclopropyl-1-(6-(5-(hydroxymethyl)pyridin-2-yl)pyrrolo[1,2-b]pyridazin-4-yl)-4-methyl-2-oxopyrrolidine-3-carbonitrile trifluoroacetate]"
50 to 100 nM,1000 to 5000 nM,1 to 5 µM,1000 to 5000 nM,"C[C@@H]1CN(c2ccnn3cc(-c4cnccn4)cc23)C(=O)[C@]1(C#N)C1CC1 [Example 151, (3R,4S)-3-cyclopropyl-4-methyl-2-oxo-1-(6-(pyrazin-2-yl)pyrrolo[1,2-b]pyridazin-4-yl)pyrrolidine-3-carbonitrile trifluoroacetate]"
5 to 20 nM,100 to 1000 nM,0.1 to 1 µM,100 to 1000 nM,"C[C@@H]1CN(c2ccnn3cc(-c4cnn5c4CCCC5)cc23)C(=O)[C@]1(C#N)C1CC1 [Example 173, (3R,4S)-3-cyclopropyl-4-methyl-2-oxo-1-(6-(4,5,6,7-tetrahydropyrazolo[1,5-a]pyridin-3-yl)pyrrolo[1,2-b]pyridazin-4-yl)pyrrolidine-3-carbonitrile]"
> 100 nM,5000 to 10000 nM,> 10 µM,> 10000 nM,"CCc1ccncc1-c1cc2c(N3C[C@@H](C)[C@@](C#N)(C4CC4)C3=O)ccnn2c1 [Example 175, (3R,4S)-3-cyclopropyl-1-(6-(4-ethylpyridin-3-yl)pyrrolo[1,2-b]pyridazin-4-yl)-4-methyl-2-oxopyrrolidine-3-carbonitrile trifluoroacetate]"
20 to 50 nM,100 to 1000 nM,1 to 5 µM,1000 to 5000 nM,"C[C@@H]1CN(c2ccnn3cc(-c4cncc(OC(F)F)c4)cc23)C(=O)[C@]1(C#N)C1CC1 [Example 177, (3R,4S)-3-cyclopropyl-1-(6-(5-(difluoromethoxy)pyridin-3-yl)pyrrolo[1,2-b]pyridazin-4-yl)-4-methyl-2-oxopyrrolidine-3-carbonitrile]"
> 100 nM,5000 to 10000 nM,> 10 µM,5000 to 10000 nM,"CCc1ncccc1-c1cc2c(N3C[C@@H](C)[C@@](C#N)(C4CC4)C3=O)ccnn2c1 [Example 178, (3R,4S)-3-cyclopropyl-1-(6-(2-ethylpyridin-3-yl)pyrrolo[1,2-b]pyridazin-4-yl)-4-methyl-2-oxopyrrolidine-3-carbonitrile trifluoroacetate]"
> 100 nM,> 10000 nM,> 10 µM,> 10000 nM,"C[C@@H]1CN(c2ccnn3cc(-c4cnccc4C(F)(F)F)cc23)C(=O)[C@]1(C#N)C1CC1 [Example 179, (3R,4S)-3-cyclopropyl-4-methyl-2-oxo-1-(6-(4-(trifluoromethyl)pyridin-3-yl)pyrrolo[1,2-b]pyridazin-4-yl)pyrrolidine-3-carbonitrile]"
> 100 nM,> 10000 nM,> 10 µM,> 10000 nM,"C[C@@H]1CN(c2ccnn3c(F)c(-c4cnn(C)c4)nc23)C(=O)[C@]1(C#N)C1CC1 [Example 183, (3R,4S)-3-cyclopropyl-1-(3-fluoro-2-(1-methyl-1H-pyrazol-4-yl)imidazo[1,2-b]pyridazin-8-yl)-4-methyl-2-oxopyrrolidine-3-carbonitrile]"
20 to 50 nM,100 to 1000 nM,1 to 5 µM,100 to 1000 nM,"COc1cc(-c2cn3nccc3c(N3C[C@@H](C)[C@@](C#N)(C4CC4)C3=O)n2)c(F)cn1 [Example 196, (3R,4S)-3-cyclopropyl-1-(6-(5-fluoro-2-methoxypyridin-4-yl)pyrazolo[1,5-a]pyrazin-4-yl)-4-methyl-2-oxopyrrolidine-3-carbonitrile]"
20 to 50 nM,100 to 1000 nM,1 to 5 µM,100 to 1000 nM,"Cc1nn(C)c(C)c1-c1cn2nccc2c(N2C[C@@H](C)[C@@](C#N)(C3CC3)C2=O)n1 [Example 200, (3R,4S)-3-cyclopropyl-4-methyl-2-oxo-1-(6-(1,3,5-trimethyl-1H-pyrazol-4-yl)pyrazolo[1,5-a]pyrazin-4-yl)pyrrolidine-3-carbonitrile]"
50 to 100 nM,1000 to 5000 nM,> 10 µM,1000 to 5000 nM,"C[C@@H]1CN(c2nc(-c3ncccc3F)cn3nccc23)C(=O)[C@]1(C#N)C1CC1 [Example 212, (3R,4S)-3-cyclopropyl-1-(6-(3-fluoropyridin-2-yl)pyrazolo[1,5-a]pyrazin-4-yl)-4-methyl-2-oxopyrrolidine-3-carbonitrile]"
> 100 nM,> 10000 nM,> 10 µM,> 10000 nM,"C[C@@H]1CN(c2nccn3nc(-c4cnn(C)c4)cc23)C(=O)[C@]1(C#N)C1CC1 [Example 216, (3R,4S)-3-cyclopropyl-4-methyl-1-(2-(1-methyl-1H-pyrazol-4-yl)pyrazolo[1,5-a]pyrazin-4-yl)-2-oxopyrrolidine-3-carbonitrile]"
